The values below are quoted from earlier work in patent publication US20070020249A1, “COMPOSITIONS FOR PREVENTION AND TREATEMENT OF SYMPTOMS OF GASTROINTESTINAL DISTRESS” (priority 2005, published 2007).

For the data set the following is noted: humans; Auburn University study.

On to “oxygen-coordinated chromium polynicotinate”, for which the “reduction of LDL cholesterol, average” value is recorded as 14%.
